Test results taken from US20230263749A1, “COMPOSITIONS AND METHODS FOR IMPROVING NEUROLOGICAL DISEASES AND DISORDERS” (CuraSen Therapeutics, Inc., priority 2020, published 2023).
“Also recorded” adds a separate entry of the source.

How the values were obtained:
Type in all cases: in vivo, human
subjects = assay: Visual verbal learning test (VVLT); conditions: crossover study, Part A
Experimental: Subjects are presented 30 words on a screen, one at a time, for 1 second with a 1-second interval between words over a total of 1 minute. This is repeated in 3 trials. After each trial, subjects are asked to recall as many words as they can. After the third trial, there is a delay of 2.5 hours and subjects are then tested once for delayed recall. […] Since this was a crossover study, everyone who completed Part A was dosed with the 3 agents plus placebo.

patients = assay: Cerebral blood flow relative to baseline after a single dose in patients (Example 1)
healthy subjects [1] = assay: ASL MRI cerebral perfusion before and after a single dose in healthy subjects (Example 3)
Experimental: The data are plotted as change from baseline in cerebral blood flow in different regions of the brain.
Six healthy subjects aged 44-52 were treated with a single dose of […]. The Baseline vs. post-dose paired t-tests results: p=0.019. The color scale is shown in the middle and indicates cerebral blood flow with low values in red and high values in yellow.
In a clinical study, healthy subjects were administered doses of clenbuterol ranging from 20 to 160 μg and ASL MM was conducted prior to and after dosing with an objective to ascertain whether this neuroimaging method enables the detection of a clinically relevant CNS signal.
In a region of interest (ROI) analysis focusing on the hippocampus, which is well understood to be affected in neurodegenerative disorders, a single dose of 80 μg of clenbuterol causes a robust increase in perfusion (see FIG. 7). […] Taken together with other cohorts in which ASL MM was conducted, a clear dose response relationship is seen between dose of clenbuterol and cerebral perfusion (FIG. 8). […] Our hypothesis is that by improving cerebral perfusion, particularly in areas of the brain that are relevant for symptoms that are commonly found in neurodegenerative diseases such as PD and AD, the administration of a β-AR agonist (such as a β-agent) will have a positive effect on clinically relevant symptoms such as memory and cognition.

healthy subjects [2] = assay: Adaptive tracking test (visuomotor coordination and vigilance); conditions: single dose of 160 μg clenbuterol
Excerpt: Adaptive tracking measures visuomotor coordination and vigilance. In this test, the subject uses a joystick to move a small dot so that it stays within a continuously moving circle on a computer screen (Boland 1984). During the test, the speed of the circle is adjusted in response to the subject's ability to keep the dot in the circle, ensuring that the test is adapted to the individual subject. […] The improvement shown by subjects is in the same range as that seen with subjects treated with the acetylcholinesterase inhibitor donepezil, which is in clinical use for the treatment of mild to moderate AD (Groeneveld 2016).

healthy subjects [3] = assay: Heart rate by triplicate ECG after Compound 03-5 with or without nadolol pre-administration
Experimental: Heart rate was measured by triplicate ECG recordings. Data are presented as means changes from time-matched measures recorded on the day before the first dose of study drug (Day −1).
Healthy volunteers were be enrolled into 2 cohorts in a study to undertake within-subject dose titration of Compound 03-5 and/or nadolol in order to explore doses/dose combinations that mitigate peripheral effects of Compound 03-5, e.g. on heart rate, while preserving possible central effects of Compound 03-5 on cerebral perfusion and pupillary light reflex.
Cohort D1 enrolled 8 healthy subjects and undertook an evaluation of the effects of treatment on ECG following repeat dosing of Compound 03-5 in the presence of escalating doses of nadolol according to following schematic.
Eight healthy subjects aged 18-50 years were enrolled into Cohort D1 and received escalating doses of Compound 03-5 (3-12 mg) administered once daily 2 hours follow pre-administration of nadolol (1-40 mg). On all dosing days, study drug(s) were administered orally after an overnight fast of at least 8 hours.
(§1) Routine measures of ECG, vital signs, safety labs, physical exams and plasma sample collections for analysis of drug pharmacokinetics (PK) were undertaken according to the Schedule of Events (Table 1).
(§2) In Cohort D2, 8 healthy volunteers aged 55-75 years were admitted on Day −1 for a 5-day confinement period at the research facility. During this confinement, subjects received escalating doses of open label Compound 03-5 (1-10 mg) once-daily from Day 1 through Day 3 2 hours after pre-administration of open-label nadolol (3 mg) one each for the 3 dosing days according to the following schematic. Subjects remained in-residency until all study procedures are completed on Day 4.

healthy subjects [4] = assay: Blood potassium, glucose and other peripheral effects of Compound 03-5 with or without nadolol
Excerpt: Data are presented as individual observations for all available subjects.
as §1

[5] = tested on: healthy volunteers aged 55-75 years; assay: CANTAB cognition battery, Cohort D2; conditions: Compound 03-5 1, 3 and 10 mg once daily, 2 h after 3 mg nadolol, change from within-day pre-dose
Experimental: CANTAB data from healthy adults 55-75 years of age (N=4) who received once-daily 3 mg nadolol and Compound 03-5 (1, 3, and 10 mg) on Day 1, Day 2 and Day 3. […] Data are presented as mean changes from the within-day pre-dose assessment.
In some embodiments, cognition may be evaluated using the Cambridge Neuropsychological Test Automated Battery (CANTAB) assessment (see, for example, Sahakian, et al., (1988). Brain. 111 (3): 695-718). Cognitive domains, such as attention, visuospatial working memory, episodic memory, speed of process and executive function can be assessed using the CANTAB Battery Test, which includes the following: • Reaction Time (RTI), • Paired Associates Learning (PAL), • Verbal Recognition Memory (VRM) Immediate Free Recall, • Rapid Visual Information Processing (RVP), • Spatial Working Memory (SWM), • Adaptive Tracking, and • VRM Delayed Free recall and Forced-Choice Recognition.
as §2

[6] = clenbuterol doses of 80 and 160 μg

## CC(C)(C)NCC(O)c1ccc(O)c(CO)c1 (stereo not shown) [salbutamol]
subjects
  effect on the VVLT: positive effects

## CC(C)(C)NCC(O)c1cc(Cl)c(N)c(Cl)c1 (stereo not shown) [clenbuterol]
patients; single dose of clenbuterol 160 μg
  cerebral blood flow (CBF) relative to baseline: robust global increase in cerebral blood flow; also recorded: positive increase in cerebral blood flow
patients; single dose of clenbuterol 160 μg and nadolol 5 mg
  cerebral blood flow (CBF) relative to baseline: robust global increase in cerebral blood flow
patients; single dose of clenbuterol ranging from 30 to 160 μg, tracked over 3 days
  cerebral blood flow (CBF) relative to baseline: robust global increase in cerebral blood flow
Healthy subjects [1]; 6 healthy subjects aged 44 to 52, single dose of 80 μg clenbuterol, hippocampus ROI
  increase in hippocampal perfusion, on average: 25%
Healthy subjects [1]; clenbuterol dose of 40 μg
  cerebral perfusion increase as measured by CBF: minimal increase
Healthy subjects [1]; clenbuterol doses below 30 μg
  cerebral perfusion increase as measured by CBF: do not produce significant cerebral perfusion increases
Healthy subjects [1]; [6]
  global perfusion (ASL MRI): robust, global increase in perfusion
  improvement in perfusion in brain areas relevant to the neuropathology of neurodegenerative disorders: ~25%
Healthy subjects [1]; healthy subjects, single dose of 160 μg clenbuterol
  cerebral perfusion (ASL MRI): robust global increase in cerebral perfusion
Healthy subjects [2]; healthy subjects, preliminary data
  cognition as measured by adaptive tracking and word recall: improves cognition
Healthy subjects [2]
  performance in adaptive tracking (percent time dot kept within moving circle): improved adaptive tracking; also recorded: performance in adaptive tracking improves
subjects
  effect on the VVLT: positive effects

## CC(C)(C)NC[C@H](O)c1cccc(C#N)n1 [Compound 03-5, (S)-6-(2-(tert-butylamino)-1-hydroxyethyl)picolinonitrile]
Healthy subjects [3]; 6 mg Compound 03-5 after pre-administration of 1 mg nadolol
  mean maximum increase in heart rate: 7 beats per minute
Healthy subjects [4]; Compound 03-5 monotherapy 0.3 mg-6 mg, Cohorts A1-A5
  hypokalemia (blood potassium levels): Dose-dependent increases in hypokalemia
[5]
  performance in the CANTAB cognition battery: improvements in performance in the CANTAB cognition battery

## CC(C)NCC(O)COc1cccc2[nH]ccc12 (stereo not shown) [pindolol]
subjects
  effect on the VVLT: detrimental effect

## CC(C)(C)NCC(O)COc1cccc2c1CC(O)C(O)C2 (stereo not shown) [nadolol]
Healthy subjects [3]; Cohort D1, pre-administered nadolol 1 mg up to 40 mg, Compound 03-5 3-12 mg
  effect of nadolol on peripheral effects of Compound 03-5 on heart rate, glucose, potassium, tachycardia, tremor and palpitations: blocked the peripheral effects
Healthy subjects [3]; Cohort D1, pre-administration of 1 mg nadolol, Compound 03-5 orally up to 6 mg
  effect of nadolol on Compound 03-5 increase in heart rate and other peripheral effects including hyperglycemia and hypokalemia: substantially attenuated
Healthy subjects [3]; Cohort D2, pre-administered nadolol 3 mg, Compound 03-5 1-10 mg
  effect of nadolol on peripheral effects of Compound 03-5 on heart rate, etc.: similarly blocked the peripheral effects
Healthy subjects [4]; nadolol 1-40 mg, Cohorts D1 and D2
  effect of nadolol on Compound 03-5 hypokalemia: attenuation of hypokalemia
Healthy subjects [4]; pre-administration of 1 mg nadolol, 6 mg Compound 03-5
  effect of nadolol on effects of Compound 03-5 on blood glucose and potassium, tachycardia, tremor and palpitations: Concomitant attenuation
